Data published in patent US10988502B2, “Alpha-D-galactoside inhibitors of galectins” (GALECTO BIOTECH AB, priority 2016, dated 2021).
pKd: −log10 of the molar value. Like-named read-outs stand apart in the source and are kept apart here.

How the values were obtained:
[1] = test system: galectins; conditions: cited from earlier work
[2] = target: T1, Galectin-1 (Homo sapiens (Human), UniProt P09382); conditions: read-out: affinity to Galectin-1, cited from earlier work
Target sequence in this assay (P09382 whole entry, species assumed): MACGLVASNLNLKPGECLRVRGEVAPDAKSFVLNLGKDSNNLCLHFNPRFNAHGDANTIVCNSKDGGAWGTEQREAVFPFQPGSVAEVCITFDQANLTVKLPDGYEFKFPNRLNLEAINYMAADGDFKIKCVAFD

[3] = target: T1, Galectin-1; experiment: Fluorescence anisotropy assay, compound as inhibitor of galectin / fluorescein tagged saccharide probe interaction; type: binding
Experimental: (§1) The affinity of Example 1-32 for galectins were determined by a fluorescence anisotropy assay where the compound was used as an inhibitor of the interaction between galectin and a fluorescein tagged saccharide probe as described Sörme, P., Kahl-Knutsson, B., Huflejt, M., Nilsson, U. J., and Leffler H. (2004) Fluorescence polarization as an analytical tool to evaluate galectin-ligand interactions. Anal. Biochem. 334: 36-47, (Sörme et al., 2004) and Monovalent interactions of Galectin-1 By Salomonsson, Emma; Larumbe, Amaia; Tejler, Johan; Tullberg, Erik; Rydberg, Hanna; Sundin, Anders; Khabut, Areej; Frejd, Torbjorn; Lobsanov, Yuri D.; Rini, James M.; et al, From Biochemistry (2010), 49(44), 9518-9532, (Salonmonsson et al., 2010).
Target sequence in this assay (P09382 whole entry): as the sequence (P09382 whole entry, species assumed) above

[4] = target: Galectin-3 (Homo sapiens (Human), UniProt P17931); experiment: as above; type: binding
Experimental: as §1

[5] = Permeability (Papp) Caco-2 A>B; type: in vitro ADME; conditions: human, apical (A) to basolateral (B) direction
Experimental: (§2) The permeability (Papp) (Caco-2 A>B) was determined from the apical (A) to the basolateral (B) direction in adenocarcinoma cells from human colon. The human hepatic stability (CLint) was determined in human hepatocytes.

[6] = Human hepatic stability (CLint) in human hepatocytes; type: in vitro ADME; conditions: * = no degradation observed under the assay conditions
Experimental: as §2

Sequence of Galectin-3 (P17931 whole entry): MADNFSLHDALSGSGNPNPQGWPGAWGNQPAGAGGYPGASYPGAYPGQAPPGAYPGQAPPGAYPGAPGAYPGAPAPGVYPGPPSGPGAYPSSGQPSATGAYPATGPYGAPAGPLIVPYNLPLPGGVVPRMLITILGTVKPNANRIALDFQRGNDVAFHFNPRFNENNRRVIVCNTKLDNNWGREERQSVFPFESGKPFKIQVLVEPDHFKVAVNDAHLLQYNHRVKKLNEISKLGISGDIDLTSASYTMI

Row | CLint scaled [6] | SMILES | pKd [3] | pKd [4] | Papp [5] | also measured
1 |  | O=C[C@H](O)[C@@H](O)[C@@H](O)[C@H](O)CO [Galactose, D-galactose] |  |  |  | affinity relative to lactose ([1]; compared with lactose): 50-100 times lower; pKd ([2]; Tejler et. al. 2009): 2.00
2 | 11.3 mL/min/kg | OC[C@H]1O[C@H](Sc2cnc(C(F)(F)F)c(Br)c2)[C@H](O)[C@@H](n2cc(-c3ccsc3)nn2)[C@H]1O [Example 4, 5-Bromo-6-trifluoromethyl-pyridin-3-yl 3-deoxy-3-[4-(3-thiophenyl)-1H-1,2,3-triazol-1-yl]-1-thio-α-D-galactopyranoside] | 6.42 | 5.92 | 2.5 ×10⁻⁶ cm/s | 
3 | 0.38 mL/min/kg | OCC1O[C@H](Sc2cc(Cl)c(F)c(Cl)c2)C(O)[C@@H](n2cc(-c3nccs3)nn2)[C@H]1O (some centres unmarked) [Example 5] |  |  | 10.5 ×10⁻⁶ cm/s | 
4 |  | OCC1O[C@@H](S[C@@H]2O[C@H](CO)C(O)C(n3cc(-c4ccsc4)nn3)[C@H]2O)C(O)[C@@H](n2cc(-c3ccsc3)nn2)[C@H]1O (some centres unmarked) |  |  |  | Kd ([2]; T. Delaine, 2016, ChemBioChem): < 1e-05 mM
5 |  | OC[C@H]1O[C@H](Sc2cc(Cl)c(F)c(Cl)c2)[C@H](O)[C@@H](n2cc(-c3cscn3)nn2)[C@H]1O [Example 14, 3,5-Dichloro-4-fluoro-phenyl 3-deoxy-3-[4-(4-thiazolyl)-1H-1,2,3-triazol-1-yl]-1-thio-α-D-galactopyranoside] | 6.64 | 5.21 | 8.8 ×10⁻⁶ cm/s | 
6 |  | OC[C@H]1O[C@@H](O[C@H]2[C@H](O)[C@@H](O)C(O)O[C@@H]2CO)[C@H](O)[C@@H](O)[C@H]1O (some centres unmarked) [Lactose] |  |  |  | pKd ([1]; reviewed by Leffler, 2001, Leffler et al., 2004, read-out: Kd for all galectins): 3.00 to 4.00

Row | SMILES | CLint scaled [6] | pKd [3] | pKd [4] | Papp [5] | also measured
7 | OC[C@H]1O[C@H](Sc2ccc(Cl)c(Cl)c2)[C@H](O)[C@@H](n2cc(-c3ccsc3)nn2)[C@H]1O [Example 1, 3,4-Dichlorophenyl 3-deoxy-3-[4-(3-thiophenyl)-1H-1,2,3-triazol-1-yl]-1-thio-α-D-galactopyranoside] | 12.1 mL/min/kg | 6.85 | 5.59 | 10.1 ×10⁻⁶ cm/s | 
